Reference: US8987193B2, “Nisin derivatives and the use thereof” (University College Cork—National University of Ireland, Cork, priority 2008, dated 2015)
Entries after “also recorded” stand apart in the source; their conditions may differ. Ends that are not written are not given here.

How the values were obtained:
L. monocytogenes CBC1 = assay: Deferred antagonism assay; assay type: cell-based, Listeria monocytogenes; parameters: key: + = Enhanced bioactivity relative to control; − = Bioactivity equal to or less than control; NA = no activity evident; details: L. mono CBC1; XX and XXX hinge mutant producers
Experimental: (§1) Deferred antagonism assays were performed by replicating strains on GM17 or GM17 x-gal agar plates and allowing them to grow overnight before overlaying with either GM17/BHI/TS/MH agar (0.75% w/v agar) seeded with the appropriate indicator strain. Zone size was calculated as the diameter of the zone of clearing minus the diameter of bacterial growth (5 mm) For higher throughput screening of N20PXX, XM21VX, XXK22T and XXX banks deferred antagonism assays were performed by replicating strains using a 96 pin replicator (Boekel) or spotting 5 μl of a fresh overnight culture on GM17 agar plates and allowing them to grow overnight. […] Additional sets of indicators were employed to further assess/reassess the bioactivity of a number of strains. […] For well-diffusion assays molten agar was cooled to 48° C. and seeded with the appropriate indicator strain. The inoculated medium was rapidly transferred into sterile Petri plates in 50 ml volumes, allowed to solidify and dried. Wells (4.6 mm in diameter) were then made in the seeded plates. Purified nisin and mutant nisins were resuspended in 0.005% acetic acid, serially diluted, 50 μl volumes were dispensed into the aforementioned wells and the plates incubated at 37° C. overnight. Bioactivity was expressed as arbitrary units/ml (AU/ml) and calculated as the reciprocal of the highest dilution that gave a definite zone multiplied by the conversion factor (i.e. 20 when 50 μl was used) (Ryan et al., 1996).
(§2) As a consequence of the enhanced activities of K22T and K22S, a more in-depth investigation of this region was carried out. Saturation mutagenesis was undertaken to create a bank of nisin A hinge derivatives containing the vast majority of possible amino acid substitutions for each position. Although pPTPL was used successfully for random mutagenesis, its relatively large size of approx 10.5 kb was considered unsuitable for the complete plasmid PCR amplification approach utilized for saturation mutagenesis. A smaller (approx 6 kb) E. coli-L. lactis shuttle vector pCI372 was considered to be potentially more useful. Its suitability with respect to the in trans expression of nisA was confirmed by the ability of pDFO5 to restore the nisin positive phenotype. Saturation mutagenesis was performed on each codon using pDF05 and oligonucleotides (Table 5) that replace the specific codon with a NNK triplet, potentially encoding all 20 standard amino acids. Following complete plasmid amplification and introduction into the intermediate Top10 host, sequence analysis of a pooled bank of pDF05 derivatives confirmed randomization. Introduction of these variants into L. lactis NZ9800 allowed the expression of mutant nisin A peptides for further analysis. […] 46 residue conversions were isolated. All strains, regardless of bioactivity, were assessed with a view to comprehensively assessing the consequences of each individual hinge alteration.

L. monocytogenes CBC2 = assay: Deferred antagonism assay; assay type: cell-based, Listeria monocytogenes; parameters: key: + = Enhanced bioactivity relative to control; − = Bioactivity equal to or less than control; NA = no activity evident; details: L. mono CBC2; XX and XXX hinge mutant producers
Experimental: as §1, §2

L. monocytogenes CBC3 = assay: Deferred antagonism assay; assay type: cell-based, Listeria monocytogenes; parameters: key: + = Enhanced bioactivity relative to control; − = Bioactivity equal to or less than control; NA = no activity evident; details: L. mono CBC3; XX and XXX hinge mutant producers
Experimental: as §1, §2

L. lactis CBC7 = assay: Deferred antagonism assay; assay type: cell-based; parameters: key: + = Enhanced bioactivity relative to control; − = Bioactivity equal to or less than control; NA = no activity evident; details: XX and XXX hinge mutant producers
Experimental: as §1, §2

L. lactis CBC8 = assay: Deferred antagonism assay; assay type: cell-based; parameters: key: + = Enhanced bioactivity relative to control; − = Bioactivity equal to or less than control; NA = no activity evident; details: XX and XXX hinge mutant producers
Experimental: as §1, §2

S. aureus CBC4 = assay: Deferred antagonism assay; assay type: cell-based; parameters: key: + = Enhanced bioactivity relative to control; − = Bioactivity equal to or less than control; NA = no activity evident; details: XX and XXX hinge mutant producers
Experimental: as §1, §2

L. plantarum CBC6 = assay: Deferred antagonism assay; assay type: cell-based, Lactobacillus plantarum; parameters: key: + = Enhanced bioactivity relative to control; − = Bioactivity equal to or less than control; NA = no activity evident; details: XX and XXX hinge mutant producers
Experimental: as §1, §2

indicator strains = assay: Deferred antagonism assays, various indicator strains (summary); assay type: cell-based; details: for Target strain against which the hinge mutant was selected for enhanced bioactivity: XX and XXX banks, L. lactis HP*: enhanced or equal; for Target strain against which the hinge mutant was selected for enhanced bioactivity / Strain(s) against which the derivative (producing strain) displays enhanced bioactivity: relative to nisin A-producing control; for number of targets with enhanced activity: of the 8 additional targets tested; for Strain(s) against which the derivative (producing strain) displays enhanced bioactivity: value = strains listed
Experimental: as §1

Substance | bioactivity relative to a nisin A-producing control (L. monocytogenes CBC1) | bioactivity relative to a nisin A-producing control (L. monocytogenes CBC2) | bioactivity relative to a nisin A-producing control (L. monocytogenes CBC3) | bioactivity relative to a nisin A-producing control (L. lactis CBC7) | bioactivity relative to a nisin A-producing control (L. lactis CBC8) | bioactivity relative to a nisin A-producing control (S. aureus CBC4) | bioactivity relative to a nisin A-producing control (L. plantarum CBC6) | Target strain against which the hinge mutant was selected for enhanced bioactivity (indicator strains) | number of targets with enhanced activity (indicator strains) | Strain(s) against which the derivative (producing strain) displays enhanced bioactivity (indicator strains)
NisinA PAL (ITSISLCTPGCKTGALMGCPALTATCHCSIHVSK; not fully specified (bridges); also: lantibiotic nisin-A: lanthionine rings and dehydrated residues, places not given here; UniProt P13068 24-57, looked up, variant N20P M21A K22L) [nisin A hinge variant PAL (i.e. N20P, M21A, K22L)] | − | + | − | + | + | + | − | C. sporogenes UCC1 | 4 | C. sporogenes UCC1, S. aureus CBC4, L. lactis CBC7 and CBC8, L. monocytogenes CBC2 and an additional 10 L. monocytogenes and 2 L. innocua; also recorded: C. sporogenes UCC1, L. mono CBC2, S. aureus CBC4, L. lactis
NisinA PML | − | + | + | + | − | + | − | Staph. aureus RF122 | 4 | S. aureus RF122, L. monocytogenes CBC2 , CBC3, and CBC4 and L. lactis CBC7 and S. aureus RF122, L. mono CBC2, CBC3, CBC4, L. lactis and CBC7
NisinA GLA (ITSISLCTPGCKTGALMGCGLATATCHCSIHVSK; cysteine pairing not given here; also: lantibiotic nisin-A; UniProt P13068 24-57, looked up, variant N20G M21L K22A) [nisin A hinge variant GLA (i.e. N20G, M21L, K22A)] | − | − | − | − | − | − | − | B. cereus UCC1 | 1 | B. cereus UCC1
NisinA PAA | − | − | − | − | − | + | − | C. sporogenes UCC1 |  | C. sporogenes UCC1 and S. aureus CBC4
NisinA PMT | − | − | − | − | − | − | − | Staph. aureus RF122 |  | S. aureus RF122
NisinA SVA (ITSISLCTPGCKTGALMGCSVATATCHCSIHVSK; not fully specified (bridges); also: lantibiotic nisin-A: lanthionine rings and dehydrated residues, places not given here; UniProt P13068 24-57, looked up, variant N20S M21V K22A) [nisin A hinge variant SVA (i.e. N20S, M21V, K22A)] | − | + | + | + | + | + | − | C. sporogenes UCC1 | 5 | C. sporogenes UCC1, L. monocytogenes CBC2 , CBC3, S. aureus CBC4 and L. lactis CBC7 , CBC8; also recorded: C. sporogenes UCC1, L. mono CBC2, CBC3, S. aureus
NisinA PMC | − | − | + | + | − | + | − | B. cereus UCC1 | 3 | L. monocytogenes CBC3, S. aureus CBC4 and L. lactis CBC7; also recorded: L. mono CBC3, S. aureus CBC4, L. lactis CBC7
NisinA PIA | − | − | − | − | − | − | − | Staph. aureus RF122 |  | B. cereus UCC1
NisinA PMM | − | − | − | − | − | − | − | Staph. aureus RF122 |  | B. cereus UCC1; also recorded: B. cereus UCC
NisinA PNR (ITSISLCTPGCKTGALMGCPNRTATCHCSIHVSK; not fully specified (bridges); also: lantibiotic nisin-A: lanthionine rings and dehydrated residues, places not given here; UniProt P13068 24-57, looked up, variant N20P M21N K22R) [nisin A hinge variant PNR (i.e. N20P, M21N, K22R)] | − | − | − | − | − | − | − | Staph. aureus RF122 |  | S. aureus RF122
